Assays:
[1] = target: T1, Dimer of Gag-Pol polyprotein [501-599] (Human immunodeficiency virus 1, UniProt P03367); assay: Enzyme Inhibition Assay; settings: pH 5.5; 23 °C
T1 construct: 501-599
Method: (§1) Enzyme assay was performed at room temperature on a microplate reader (Safire2TM) using black 96-well microtiter plates purchased from Nunc. Inhibitors and substrates were previously dissolved in 4% DMSO. The hydrolysis of the substrates was recorded as increase in fluorescence intensity. IC50 values were generated by nonlinear regression analysis from plots of vi/v0 versus inhibitor concentration, in which vi is the velocity in presence, and v0 the velocity in the absence of an inhibitor. The kinetic constants were determined by the method of Lineweaver and Burk, and Ki values were consecutively calculated from the following equation: Ki = IC50/[1 + (S/Km)]. The overall error of the assays is estimated to be +/-40%.

Pepsin A = Pepsin A (Sus scrofa, UniProt P00791); assay: Enzyme Inhibition Assay; settings: 25 °C
Method: as §1

Sequence of Pepsin A (P00791 whole entry): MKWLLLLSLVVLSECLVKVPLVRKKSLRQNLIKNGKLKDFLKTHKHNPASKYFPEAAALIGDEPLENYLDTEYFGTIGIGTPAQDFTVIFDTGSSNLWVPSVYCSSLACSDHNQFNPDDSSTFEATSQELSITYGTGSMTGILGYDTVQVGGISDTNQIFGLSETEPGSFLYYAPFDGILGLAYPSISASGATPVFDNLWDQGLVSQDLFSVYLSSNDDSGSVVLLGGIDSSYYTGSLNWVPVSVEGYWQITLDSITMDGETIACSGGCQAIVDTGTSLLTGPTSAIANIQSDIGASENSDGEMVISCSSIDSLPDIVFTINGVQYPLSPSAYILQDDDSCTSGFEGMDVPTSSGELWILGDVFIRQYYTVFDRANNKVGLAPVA

| Compound | IC50 [1] | IC50 (Pepsin A) |
| --- | --- | --- |
| O=C(Cc1ccccc1)N(CCNCCN(Cc1ccccc1)C(=O)Cc1ccccc1)Cc1ccccc1 [carboxamide, 12a] | > 250 µM | > 250 µM |
| O=C(Cc1ccccc1)N(CCCNCCN(Cc1ccccc1)C(=O)Cc1ccccc1)Cc1ccccc1 [carboxamide, 12b] | > 250 µM | > 250 µM |
| O=C(Cc1ccccc1)N(CCCNCCCN(Cc1ccccc1)C(=O)Cc1ccccc1)Cc1ccccc1 [carboxamide, 12c] | > 250 µM | > 250 µM |
| O=S(=O)(c1ccccc1)N(CCCNCCCN(Cc1ccccc1)S(=O)(=O)c1ccccc1)Cc1ccccc1 [phenyl-substituted sulfonamides, 6c] | > 250 µM | > 250 µM |
| Nc1ccc(S(=O)(=O)N(CCCNCCN(Cc2ccccc2)S(=O)(=O)c2ccc(N)cc2)Cc2ccccc2)cc1 [phenyl-substituted sulfonamides, 6e] | > 250 µM | > 250 µM |
| Nc1ccc(S(=O)(=O)N(CCCNCCCN(Cc2ccccc2)S(=O)(=O)c2ccc(N)cc2)Cc2ccccc2)cc1 [phenyl-substituted sulfonamides, 6f] | > 250 µM |  |

Source: BindingDB's records for doi:10.1016/j.bmc.2008.08.012 (Philipps University Marburg, 2008)
